Data from US20190304569A1, “DRUG TARGETING OF HUMAN INDOLEAMINE 2,3-DIOXYGENASE” (Albert Einstein College of Medicine, priority 2016, published 2019).

Target: human indoleamine 2,3-dioxygenase (hIDO) (Homo sapiens, UniProt P14902)
Assay: hIDO enzyme activity in solution studies (binding to the Si site)
Assay type: biochemical
Conditions: for effect of binding to the Si site on the enzyme activity: solution data
Description: The existence of the Si site in hIDO was first proposed by us in 2009 based on solution studies (8). […] It is notable that for decades MitoC has been widely used as a chemotherapy drug for several types of cancer (9).

human indoleamine 2,3-dioxygenase (hIDO), sequence (P14902 whole entry): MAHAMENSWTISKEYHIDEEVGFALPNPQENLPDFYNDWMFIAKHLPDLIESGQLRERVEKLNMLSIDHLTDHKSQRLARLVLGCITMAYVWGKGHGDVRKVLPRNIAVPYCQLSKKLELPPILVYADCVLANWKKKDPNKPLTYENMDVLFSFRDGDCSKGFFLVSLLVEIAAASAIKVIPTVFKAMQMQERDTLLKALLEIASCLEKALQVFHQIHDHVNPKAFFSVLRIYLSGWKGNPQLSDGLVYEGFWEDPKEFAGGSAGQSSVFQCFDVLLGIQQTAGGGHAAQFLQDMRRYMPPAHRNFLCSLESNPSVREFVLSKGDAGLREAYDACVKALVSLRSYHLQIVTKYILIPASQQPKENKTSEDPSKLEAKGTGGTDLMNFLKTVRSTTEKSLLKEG

Row | SMILES | effect of binding to the Si site on the enzyme activity | Ki (uncompetitive inhibition of hIDO by binding to the Si site) [µM]
1 | CO[C@@]12[C@H](COC(N)=O)C3=C(C(=O)C(C)=C(N)C3=O)N1C[C@@H]1N[C@@H]12 [MitoC, Mitomycin C] | inhibiting the enzyme activity | 25
2 | N[C@@H](Cc1c[nH]c2ccccc12)C(=O)O [Trp, tryptophan] | inhibits the enzyme activity | 
